Laboratory results taken from patent US9375413B2, “Methods of reducing milk somatic cell count” ([…], priority 2014, dated 2016).

How the values were obtained:
twin-bearing ewes = experiment: Somatic cell count (SCC) in milk after arginine supplementation in mid-late gestation (Example 2); assay type: in vivo, sheep; conditions: for somatic cell count (SCC) lower than controls: trend P<0.15
From the text: FIG. 3 is a graph from a further study confirming the effect of arginine supplementation from 100 days gestation to birth in twin-bearing ewes on somatic cell count (SCC) in milk. Data was log transformed for analysis—back transformed values are presented.
In a second experiment ewes were supplemented with arginine during mid-late gestation that stopped at parturition.

sheep = conditions: not in gestation, one off dose; cited from earlier work
[1] = Effect of i.v. bolus on plasma arginine concentration; assay type: in vivo, sheep
Description: FIG. 4 is a graph from the above study illustrating plasma arginine concentrations immediately prior to (−5 min) and 30, 60 and 180 minutes following an i.v. bolus of arginine or saline (controls) in twin-bearing ewes (n=9/group) at 120 days gestation.
FIG. 5 is a graph from the above study illustrating plasma arginine concentrations 1 hour following a bolus of arginine or saline (controls) and immediately prior to slaughter at day 140 gestation in twin-bearing ewes (n=6/group).
To determine the magnitude of the increase in circulating Arg concentrations following a single bolus (3 boluses were given each day), plasma samples collected from all ewes at day 120 of gestation at time −5 (immediately prior to bolus), 30, 60 and 180 minutes following the bolus (Arg or saline) were analysed for Arg concentration using reverse-phase high-performance liquid chromatography (Sales et al., 2012). Nine ewes per treatment group were randomly selected for analysis.

[2] = tested on: non-gestational (and pre-ruminant) calves; conditions: cited from earlier work
[3] = tested on: Twin-bearing, multiparous Romney ewes; experiment: Milk free amino acid profiles by HPLC (Example 1); assay type: in vivo, sheep; conditions: saline-treated controls compared to L-arginine treated ewes
From the text: (§1) Twin-bearing, multiparous Romney ewes were housed in individual stalls and fed once daily, a lucerne-based pellet diet formulated to meet 100% of the NRC-recommended maintenance requirements for twin-bearing pregnant and lactating ewes throughout the trial.
(§2) From day 100 of pregnancy to parturition, ewes received either an injected bolus of L-arginine-mono-hydrochloride (L-arginine-HCL; Merck KGaA, Darmstadt, Germany; 345 μmol/kg body weight (BW)) or a control being approximately the same volume of sterile saline injected three times daily (0800, 1600, 2400 hrs).
Milk free amino acids (FAA) were analysed using High-Performance Liquid Chromatography (HPLC). Skim milk (500 μL) was mixed with 500-4, lithium extraction buffer (14 g/L lithium chloride, 3 g/L lithium hydroxide, 1 g/L phenol, 50 g/L sulfosalic acid) and placed on ice for 15 to 20 min. Volumes of 10-μL lithium hydroxide (5.88 M) were added to the sample to obtain a final pH of 1.5 to 2. This was followed by centrifugation at 13,680×g for 5 min at 4° C., and the resulting supernatant was filtered through a 4 mm 0.2 μm syringe filter. The filtered sample was analysed for FAA using a Shimadzu LC 10Ai HPLC, fitted with a high-efficiency lithium-ion exchange column (3 mm i.d.×150 mm) Injected volumes were 10 μL, the reagent flow rate was 0.3 mL/min, and the run was 162 min between injections, using lithium buffers as elutants and ninhydrin post column derivatization. Free amino acid values are reported as μmol per liter of milk. Differences between treatment groups were analysed using the MIXED procedure (SAS) with a linear model that included the fixed effects of dam, dam treatment group, and the covariates average dam live weight, average dam body condition score and days in lactation were included in the model.

[4] = tested on: Twin-bearing, multiparous Romney ewes; experiment: Milk composition (crude protein, somatic cell count, fat, lactose) and milk yield after L-arginine supplementation from day 100 of pregnancy to parturition (Example 1); assay type: in vivo, sheep
From the text: as §1, §2
At the first sign of labour induction, which was between 1 and 10 hours (h) prior to birth, L-arginine treatment ceased and ewes were allowed to lamb naturally. In total 25 ewes were used (arginine group, n=13; control group n=12).
Ewes were assigned to milking groups based on parturition date. Collection of a colostrum sample within the 12 h post partum could have compromised animal behaviour and ewe-lamb bond formation. Therefore, a range of 0.58-1.22 days in lactation was produced when the “colostrum” sample was collected. Ewes were then milked approximately at day 1, 4, 7, 10 and 14 of lactation, using the oxytocin method. At each milking, ewes were milked by machine followed by hand stripping, after an intravenous injection of 1 IU of synthetic oxytocin (Oxytocin V, 10 IU/mL). The time when the udder was empty was recorded. Animals were milked again (machine and hand-stripping) approximately 4 h later, with the time and weight of the milk recorded. Lambs were separated from the ewes and bottle-fed as required during the intervening period, using the milk collected from their respective dam. The same operators milked all ewes on each occasion in this study using a mobile milking machine. Milk obtained after the 4 h intervening period was subsampled for analysis of milk composition (% fat, % crude protein (CP), % lactose and somatic cell count). Milk samples were preserved with bronopol and refrigerated at 4° C. until analysis using a FT120-FTIR, calibrated for sheep milk. Two reference checks (fat and CP) were taken during lactation to account for changes in the matrix of the milk due to stage of lactation. Somatic cell counts were determined using a bromide based fluorescent dye and a FOSS flow Cytometer and values log transformed. Ewes were weighed and body condition scored (scale of 1 to 5) once a week.
Throughout milking, dams and offspring were housed in individual pens immediately adjacent to each other. Daily milk yield was calculated. Repeated measures analysis of milk yield and composition using the MIXED procedure with a linear model that included the fixed effects of dam, dam treatment group, and the covariates average dam live weight, average dam body condition score and days in lactation were included in the model. From the 25 ewes available only 18 were used for statistical analysis (arginine group n=8; control group n=10).

In the case of `Cl.N=C(N)NCCC[C@H](N)C(=O)O` [L-arginine, L-arginine-mono-hydrochloride], the “variation in SCC between animals” value (twin-bearing ewes; control compared to arginine-supplemented ewes, at each time-point and over time) is reported as “greater in the control”, the “somatic cell count (SCC) lower than controls” value (twin-bearing ewes; day 1 (colostrum) of lactation) is reported as 77% and the “somatic cell count (SCC) lower relative to controls” value (twin-bearing ewes; day 7 of lactation) is reported as roughly 75%. For the same compound, the “somatic cell count (SCC) lower than controls” value (twin-bearing ewes; day 10 of lactation) was 53%, the “somatic cell count (SCC) lower relative to controls” value (twin-bearing ewes; day 14 of lactation) was roughly 75% and the SCC in milk (twin-bearing ewes; throughout the period of study, control ewes 787,000-2,594,000 cells/ml) was 366,000-589,000 cells/ml. The “plasma white blood cell levels” value (sheep) was “increase in white blood cell levels”, the “increase in circulating Arg concentrations” value ([1]; 30 minutes following single i.v. bolus, day 120 of gestation) was 4 fold and the “plasma Arg relative to controls” value ([1]; 1 hour following a bolus, immediately prior to slaughter at 140 days of gestation, P<0.0001) was 4.6 times higher than controls. The “time for circulating concentrations of Arg to return to baseline” value ([1]; after i.v. bolus, day 120 of gestation) was no more than 3 h, the “elevated circulating Arg concentrations relative to control” value ([1]; until at least 60 minutes post-dosage, single i.v. bolus, day 120 of gestation) was 3 times the control and the “antibody production in plasma” value [2] was “reduction in antibody production”. The “absolute milk free concentration of histidine” value ([3]; day 7 post parturition) was “significantly decreased in saline-treated controls”, the “absolute milk free concentration of phenyalanine” value ([3]; day 7 post parturition) was “significantly decreased in saline-treated controls” and the “absolute milk free concentration of tryptophan” value ([3]; day 7 post parturition) was “significantly decreased in saline-treated controls”. For the same compound, the “absolute milk free concentration of tyrosine” value ([3]; day 7 post parturition) was “significantly decreased in saline-treated controls”, the milk free asparagine ([3]; day 14 post parturition) was “significantly decreased” and the milk free glutamate ([3]; day 14 post parturition) was “trends for decreased”. For the same compound, the milk free leucine ([3]; day 14 post parturition) was “trends for decreased”, the milk free tyrosine ([3]; day 14 post parturition) was “trends for decreased” and the “MSC count compared to control animals” value ([4]; between day 1 and day 4 post parturition and administration stopping) was “significantly lower”. The “Milk somatic cell counts” value ([4]; day 4-14 of lactation, compared to saline-treated controls) was “decreased”, the MSC counts ([4]; ewes treated with L-arginine, untreated ewes higher than 500,000) was “below 300,000” and the fat percentage ([4]; milk, day 1 of lactation, saline-treated controls compared to L-arginine treated ewes) was “trend for increased fat percentage at day 1 in saline-treated controls”. For the same compound, the Crude protein percentage ([4]; milk, day 4-7 of lactation, compared to saline-treated controls, 345 μmol/kg BW three times daily) was “increased”, the “crude milk protein percentage” value ([4]; milk, day 14 of lactation, saline-treated controls compared to L-arginine-treated ewes) was “trend for increased crude milk protein percentage was observed in saline-treated controls” and the lactose percentage ([4]; milk, post parturition, versus saline-treated controls) was “No effect”. The “duration of protective response in terms of milk somatic cell count” value ([4]; post administration (administration day 100 to parturition)) was “at least 14 days” and the milk yield ([4]; post parturition, versus saline-treated controls) was “No effect”.
